Results on 52 substances are retold here after patent publication US20240393292A1, “ALLERGY ANTIGEN AND EPITOPE THEREOF” (HOYU CO., LTD., priority 2019, published 2024).

The experiment deals with IgE antibodies from patients. Briefly: Wheat epitope mapping (2): overlapping 10-amino-acid peptide fragments shifted by one amino acid.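 For Rank of partial sequence as epitope binding to IgE antibody: key = sequence deemed particularly important within the common 15-residue sequence.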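 For epitope sequence binding to IgE antibody, rank (Key/Preferably/More preferably): key of grades: preferably = shorter partial sequence still acting as epitope; more preferably = sequence improving IgE binding; key = particularly important sequence.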 The experiment is classed as binding, human. Put shortly: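 Residual binding was banded as <30% none, 30–<50% poor, 50–<70% somewhat poor and ≥70% retained, relative to the parent overlapping sequence set to 100%. Values were chemiluminescent IgE signals from patient sera after subtracting secondary-antibody-only controls. The peptides were spot-synthesised 10-mers shifted by one amino acid.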

[1] abbreviates: serum of patient G7 (adult, general immediate type allergy to wheat), sequence without X.
Setting [2] is: serum of patient P29 (WDEIA), partial sequence.
Setting [3] is: serum of patient P32 (WDEIA), sequence without X.
The mark [4] stands for this setting: serum of patient P34 (WDEIA), sequence without X.
Setting [5] is: serum of patient G9 (adult, general immediate type allergy to wheat), sequence without X.
[6] abbreviates: serum of patient P20 (WDEIA), sequence without X.

With “1416 (YLQPQQPIS; REGION 1..9: note = epitope) [compound 1416]”, the “Epitope sequence binding to IgE antibody, rank of the sequence” value (serum of patient P8 (WDEIA), sequence without X) is recorded as “Key”.

On to “2286 (DKRVIERFEK; REGION 1..10: note = epitope) [compound 2286]”, for which the “Epitope sequence binding to IgE antibody, rank of the sequence (Key/Preferably/More preferably)” value (serum of patient P26 (WDEIA), sequence without X) is “Preferably”.

Turning to “1505 (SQQQA; REGION 1..5: note = epitope) [compound 1505]”, the “Rank of partial sequence as epitope binding to IgE antibody” value (shortened to “Rank of partial sequence”) under setting [1] was “Key”.

As for “1370 (QPLPPQQ; REGION 1..7: note = epitope) [compound 1370]”, the “Epitope sequence binding to IgE antibody, rank of the sequence (Key/Preferably/More preferably/Further preferably)” value (serum of patient P2 (WDEIA), sequence without X) is given as “Key”.

For “1814 (KELEAL; REGION 1..6: note = epitope) [compound 1814]”, the “epitope sequence binding to IgE antibody, rank (Key/Preferably/More preferably)” value (serum of patient P27 (WDEIA)) is listed as “Key”.

For the substance “1796 (SGKELEALPK; REGION 1..10: note = epitope) [compound 1796]”, where the note is “serum of patient P15 (WDEIA)”, the “epitope sequence binding to IgE antibody, rank (Key/Preferably/More preferably)” value was “Preferably”.

Regarding “1614 (YNPD; REGION 1..4: note = epitope) [compound 1614]”, under “serum of patient P16 (WDEIA), sequence without X”, the “Rank of partial sequence” value is recorded as “Key”.

For “2509 (QVSF; REGION 1..4: note = epitope) [compound 2509]”, the “Epitope sequence binding to IgE antibody, rank of the sequence” value under setting [2] is recorded as “Key”.

In the case of “1409 (QPQQPISQQQ; REGION 1..10: note = epitope) [compound 1409]”, the “Epitope sequence binding to IgE antibody, rank of the sequence” value (serum of patient P3 (WDEIA), sequence without X) is on record as “Preferably”.

Consider “2240 (IRNYRVAI; REGION 1..8: note = epitope) [compound 2240]”, for which the “Epitope sequence binding to IgE antibody, rank of the sequence (Key/Preferably/More preferably)” value under setting [3] is on record as “Key”.

On to “2405 (RCAYVTEIVL; REGION 1..10: note = epitope) [compound 2405]”, for which the “Epitope sequence binding to IgE antibody, rank of the sequence (Key/Preferably/More preferably/Further preferably)” value (serum of patient P50 (child, general immediate type allergy to wheat), sequence without X) is listed as “More preferably”.

As to “1848 (YTVRTLQRT; REGION 1..9: note = epitope) [compound 1848]”, for the setting “serum of patient P16 (WDEIA)”, the “epitope sequence binding to IgE antibody, rank (Key/Preferably/More preferably)” value is “More preferably”.

Turning to “2719 (YKIGG; REGION 1..5: note = epitope) [compound 2719]”, the “Epitope sequence binding to IgE antibody, rank of the sequence” value (serum of patient P25 (WDEIA), partial sequence) was “Key”.

Regarding “2733 (YKIGGI; REGION 1..6: note = epitope) [compound 2733]”, the “Epitope sequence binding to IgE antibody, rank of the sequence” value under setting [2] was “Preferably”.

Turning to “2621 (LLAS; REGION 1..4: note = epitope) [compound 2621]”, the “Epitope sequence binding to IgE antibody, rank of the sequence” value (serum of patient G2 (adult, general immediate type allergy to wheat), partial sequence) is “Key”.

For the substance “1547 (QVPLVQQQQ; REGION 1..9: note = epitope) [compound 1547]”, the “Rank of partial sequence” value under setting [4] is given as “More preferably”.

“1639 (YNPDKV; REGION 1..6: note = epitope) [compound 1639]”: the “Rank of partial sequence” value under setting [4] is “Key”.

“1659 (YNPDKVPF; REGION 1..8: note = epitope) [compound 1659]”: the “Rank of partial sequence” value (serum of patient G1 (adult, general immediate type allergy to wheat), sequence without X) is recorded as “Preferably”.

Consider “2677 (YKGPTL; REGION 1..6: note = epitope) [compound 2677]”, for which, for the setting “serum of patient P12 (WDEIA), partial sequence”, the “Epitope sequence binding to IgE antibody, rank of the sequence” value is reported as “Key”.

In the case of “1823 (LPKFL; REGION 1..5: note = epitope) [compound 1823]”, for the setting “serum of patient P35 (WDEIA)”, the “epitope sequence binding to IgE antibody, rank (Key/Preferably/More preferably)” value was “Key”.

“2724 (GIGTVPVGRV; REGION 1..10: note = epitope) [compound 2724]”: the “Epitope sequence binding to IgE antibody, rank of the sequence” value (serum of patient P26 (WDEIA), partial sequence) is “Key”.

Turning to “1354 (VEDNRRALR; REGION 1..9: note = epitope) [compound 1354]”, the “Epitope sequence binding to IgE antibody, rank of the sequence” value (serum of patient P35 (WDEIA), sequence without X) was “Key”.

“2306 (GIDK; REGION 1..4: note = epitope) [compound 2306]”: under setting [5], the “Epitope sequence binding to IgE antibody, rank of the sequence (Key/Preferably/More preferably)” value is “Key”.

With “1793 (SGKELEALPK; REGION 1..10: note = epitope) [compound 1793]”, for the setting “serum of patient P9 (WDEIA)”, the “epitope sequence binding to IgE antibody, rank (Key/Preferably/More preferably)” value is listed as “Key”.

Regarding “1918 (QVPLVQQQQ; REGION 1..9: note = epitope) [compound 1918]”, the “epitope sequence binding to IgE antibody, rank (Key/Preferably/More preferably)” value (serum of patient P10 (WDEIA)) is given as “Preferably”.

“1811 (ALPKFLKNG; REGION 1..9: note = epitope) [compound 1811]”: under “serum of patient P26 (WDEIA)”, the “epitope sequence binding to IgE antibody, rank (Key/Preferably/More preferably)” value was “Preferably”.

“1341 (NRRALR; REGION 1..6: note = epitope) [compound 1341]”: the “Epitope sequence binding to IgE antibody, rank of the sequence” value under setting [3] is recorded as “Key”.

With “2682 (YKGPTL; REGION 1..6: note = epitope) [compound 2682]”, the “Epitope sequence binding to IgE antibody, rank of the sequence” value (serum of patient P22 (WDEIA), partial sequence) is on record as “Preferably”.

Consider “1582 (FPQTQQPQ; REGION 1..8: note = epitope) [compound 1582]”, for which, under setting [6], the “Rank of partial sequence” value is “Preferably”.

With “2608 (QLVQQL; REGION 1..6: note = epitope) [compound 2608]”, the “Epitope sequence binding to IgE antibody, rank of the sequence” value (serum of patient G6 (adult, general immediate type allergy to wheat), partial sequence) is reported as “Key”.

For “1656 (NPDKVPFV; REGION 1..8: note = epitope) [compound 1656]”, the “Rank of partial sequence” value (serum of patient P53 (child, general immediate type allergy to wheat), sequence without X) is recorded as “Key”.

On to “1333 (INVEN; REGION 1..5: note = epitope) [compound 1333]”, for which, under “serum of patient P22 (WDEIA), sequence without X”, the “Epitope sequence binding to IgE antibody, rank of the sequence” value is recorded as “Key”.

Take “1366 (INVEN; REGION 1..5: note = epitope) [compound 1366]”: the “Epitope sequence binding to IgE antibody, rank of the sequence” value under setting [1] is given as “Key”.

Take “2402 (TEIV; REGION 1..4: note = epitope) [compound 2402]”: the “Epitope sequence binding to IgE antibody, rank of the sequence (Key/Preferably/More preferably)” value (serum of patient P36 (WDEIA), sequence without X) is recorded as “Key”.

On to “2305 (LGGIDK; REGION 1..6: note = epitope) [compound 2305]”, for which the “Epitope sequence binding to IgE antibody, rank of the sequence (Key/Preferably/More preferably)” value under setting [5] is recorded as “Preferably”.

As for “2504 (SSQVSF; REGION 1..6: note = epitope) [compound 2504]”, the “Epitope sequence binding to IgE antibody, rank of the sequence” value (serum of patient P16 (WDEIA), partial sequence) is “Preferably”.

Regarding “1479 (YLQPQQPISQ; REGION 1..10: note = epitope) [compound 1479]”, under “serum of patient P33 (WDEIA), sequence without X”, the “Rank of partial sequence” value is on record as “Preferably”.

For the substance “1826 (PKFL; REGION 1..4: note = epitope) [compound 1826]”, under “serum of patient G1 (adult, general immediate type allergy to wheat)”, the “epitope sequence binding to IgE antibody, rank (Key/Preferably/More preferably)” value is given as “Key”.

With “1269 (LPRS; REGION 1..4: note = epitope) [compound 1269]”, under setting [6], the “Epitope sequence binding to IgE antibody, rank of the sequence” value is “Key”.

Turning to “1959 (QFPGQQ; REGION 1..6: note = epitope) [compound 1959]”, the “epitope sequence binding to IgE antibody, rank (Key/Preferably/More preferably)” value (serum of patient P28 (WDEIA)) was “Preferably”.

In the case of “2523 (PSQLNPQA; REGION 1..8: note = epitope) [compound 2523]”, the “Epitope sequence binding to IgE antibody, rank of the sequence” value (serum of patient P56 (child, general immediate type allergy to wheat), partial sequence) is listed as “Further preferably”.

On to “2585 (LQQSTYQLVQ; REGION 1..10: note = epitope) [compound 2585]”, for which, where the note is “serum of patient P32 (WDEIA), partial sequence”, the “Epitope sequence binding to IgE antibody, rank of the sequence” value was “Preferably”.

In the case of “1185 (QQFPPQQP; REGION 1..8: note = epitope) [compound 1185]”, under “serum of patient P19 (WDEIA), sequence without X”, the “Epitope sequence binding to IgE antibody, rank of the sequence” value is “Key”.

Turning to “1586 (QQPFPQTQQP; REGION 1..10: note = epitope) [compound 1586]”, where the note is “serum of patient P21 (WDEIA), sequence without X”, the “Rank of partial sequence” value is recorded as “More preferably”.

For the substance “2602 (QQSTYQLV; REGION 1..8: note = epitope) [compound 2602]”, under “serum of patient P54 (child, general immediate type allergy to wheat), partial sequence”, the “Epitope sequence binding to IgE antibody, rank of the sequence” value is “Key”.

“1618 (FVPISG; REGION 1..6: note = epitope) [compound 1618]”: the “Rank of partial sequence” value under setting [6] was “Key”.

On to “1961 (QQQQFPGQQ; REGION 1..9: note = epitope) [compound 1961]”, for which the “epitope sequence binding to IgE antibody, rank (Key/Preferably/More preferably)” value (serum of patient P32 (WDEIA)) was “Preferably”.

In the case of “2736 (YKIGGIGTVP; REGION 1..10: note = epitope) [compound 2736]”, for the setting “serum of patient P30 (WDEIA), partial sequence”, the “Epitope sequence binding to IgE antibody, rank of the sequence” value is listed as “Preferably”.

Take “2252 (LLRGIRNYRV; REGION 1..10: note = epitope) [compound 2252]”: the “Epitope sequence binding to IgE antibody, rank of the sequence (Key/Preferably/More preferably)” value (serum of patient P52 (child, general immediate type allergy to wheat), sequence without X) is “More preferably”.

On to “1381 (PWQQQPLPPQ; REGION 1..10: note = epitope) [compound 1381]”, for which the “Epitope sequence binding to IgE antibody, rank of the sequence” value (serum of patient P12 (WDEIA), sequence without X) is on record as “Preferably”.

Regarding “2307 (RVIERFEK; REGION 1..8: note = epitope) [compound 2307]”, under setting [5], the “Epitope sequence binding to IgE antibody, rank of the sequence (Key/Preferably/More preferably)” value is given as “Preferably”.

Consider “2268 (ERFEK; REGION 1..5: note = epitope) [compound 2268]”, for which the “Epitope sequence binding to IgE antibody, rank of the sequence (Key/Preferably/More preferably)” value (serum of patient P5 (WDEIA), sequence without X) was “Key”.
